Experimental data: PubChem BioAssay (NCI)
“And” between values parts separate entries of the source, which are not always exact repeats. Equal values may be shown once.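 How tested: cells in 96-well plates exposed to compound for 48 hours at five concentrations. At the GI50, growth is halved. TGI denotes the concentration required for complete inhibition of growth.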

Tests used:
Assay in all cases: NCI-60 cell line screen, 48 h
NCI-H23 lung = system: NCI-H23 lung
UACC-257 melanoma = system: UACC-257 melanoma
SF-295 CNS = system: SF-295 CNS
SN12C renal = system: SN12C renal
HCT-15 colon = system: HCT-15 colon
SNB-19 CNS = system: SNB-19 CNS
OVCAR-4 ovarian = system: OVCAR-4 ovarian
UO-31 renal = system: UO-31 renal
NCI-H522 lung = system: NCI-H522 lung
CAKI-1 renal = system: CAKI-1 renal

Row | SMILES | TGI (NCI-H23 lung) | TGI (UACC-257 melanoma) [µM] | TGI (SF-295 CNS) [µM] | TGI (SN12C renal) [µM] | TGI (HCT-15 colon) [µM] | TGI (SNB-19 CNS) [µM] | TGI (OVCAR-4 ovarian) [µM] | TGI (UO-31 renal) [µM] | TGI (NCI-H522 lung) | GI50 (NCI-H23 lung) | GI50 (SF-295 CNS) | GI50 (SN12C renal) | GI50 (HCT-15 colon) | GI50 (CAKI-1 renal) [µM] | TGI (CAKI-1 renal) [µM] | GI50 (SNB-19 CNS) | GI50 (UO-31 renal) | GI50 (NCI-H522 lung) | GI50 (UACC-257 melanoma) [µM] | GI50 (OVCAR-4 ovarian)
1 | CC(=O)OCCOCNC(=S)N/N=C/c1ccc(Br)s1 | > 100 µM | > 100 | > 100 | > 100 | > 100 | > 100 | > 100 | > 100 | > 100 µM |  |  |  |  |  |  |  |  |  |  | 
2 | Nc1nc(N)c2cc(CNc3ccc(C(=O)NC(CC(=O)O)C(=O)O)c(Cl)c3)ccc2n1 (stereo not given) | 64 µM and 491 µM |  | > 500 | > 500 | > 500 | > 500 | > 500 | > 500 | > 500 µM | 0.05 µM | 0.05 µM | 0.05 µM | 0.05 µM | 0.05 | > 500 | 0.05 µM | 0.244 µM | 342 µM |  | 
3 | CN1CCN(c2ccc(Nc3ncc4cc(C#N)c(=O)n(C5CCCC5)c4n3)cc2)CC1 |  | > 100 | > 42.6 | 15.5 | > 100 | 18.7 | > 100 | 7.03 | > 100 µM |  | 1.19 µM | 0.917 µM | 0.94 µM | 0.346 | 17.3 | 1.77 µM | 0.218 µM | 4.29 µM | 4.02 | 3.08 µM
4 | Cc1ncc([N+](=O)[O-])n1CCNS(=O)(=O)CCCn1ncnc1[N+](=O)[O-] | > 100 µM | > 100 | > 100 | > 100 | > 100 |  | > 100 | > 100 | > 100 µM |  |  |  |  |  | > 100 |  |  |  |  | 
5 | C/C(CCn1[nH]c(=O)ccc1=O)=N\OCCCc1ccccc1 | > 100 µM | > 100 | > 100 | > 100 | > 100 | > 100 | > 100 | > 100 |  |  |  |  |  |  | > 100 |  |  |  |  | 
6 | Cn1cc(-c2ccc(-c3cncc(Cl)c3N3CCC4(CCNC4=O)CC3)cc2)cn1 | > 100 µM | > 100 | > 100 | > 100 | > 100 | > 100 | > 100 | > 100 | > 100 µM | > 100 µM | 66.7 µM | 63.2 µM | 40.1 µM |  |  | > 100 µM | 29 µM | 26.4 µM | > 100 | 65.1 µM
7 | O=S1(=O)OCCOS(=O)(=O)C1Cl | > 100 µM | > 100 | > 100 | > 100 |  | > 100 | > 100 | > 100 | > 100 µM |  |  |  |  |  | > 100 |  |  |  |  | 
8 | c1ccc(CSc2nc3ccccc3nc2-c2cccs2)cc1 | > 100 µM | > 100 | > 100 | > 100 | > 100 | > 100 | > 100 | > 100 | > 100 µM |  |  |  |  |  |  |  |  |  |  | 
9 | COC(=O)CCC1=C(CC(=O)OC)C(C)=N/C1=C\c1[nH]c(-c2ccc[nH]2)cc1OC | 21 µM | 17 | 15.1 | 24.9 | 15.2 | 31.1 |  | 14.7 | 3.97 µM | 4.42 µM | 3.25 µM | 11.1 µM | 2.04 µM | 3.07 | 11.6 | 11.6 µM | 3.44 µM | 1.81 µM | 4.47 | 
10 | CCN(CC)c1cc2oc3cc(N)cc(=N)c-3nc2cc1C | 17.9 µM | 34 | 5.19 | 6.13 | > 100 | 32 |  | 49 | 6.05 µM | 2.11 µM | 1.85 µM | 1.94 µM | 3.14 µM | 1.65 | 6.78 | 5.46 µM | 3.38 µM | 2.31 µM | 3.11 | 
11 | Cc1nn(C(=O)c2ccc(Cl)cc2)c2c1C(c1ccc(O)cc1)SC(N)=N2 (stereo not given) | > 10 µM | > 10 | > 10 | > 10 | > 10 | > 10 | > 10 |  | > 10 µM |  |  |  |  |  | > 10 |  |  |  |  | 
12 | CC(C)(C)OC(=O)N1N=NC2C1C1CC(OCc3ccccc3)(OCc3ccccc3)C2O1 (stereo not given) | 49.2 µM | 63.7 | > 100 | > 100 | > 100 |  | > 100 | > 100 |  |  |  |  |  |  | > 100 |  |  |  |  | 
13 | Oc1ccc(Br)cc1C=Nc1ccc(N=Cc2cc(Br)ccc2O)cc1 | > 100 µM | > 100 | > 100 | > 100 | > 100 | > 100 | > 100 | > 100 |  |  |  |  |  |  | > 100 |  |  |  |  | 
14 | O=C(NO)c1ccc(CN(c2cnccn2)c2cnccn2)cc1 |  | 22.2 | 33.4 | 42.5 | 46.8 | 72.5 | 97.7 | 26.4 | 18 µM |  | 14.8 µM | 18.3 µM | 18.5 µM | 12.7 | 40.1 | 17.7 µM | 12.9 µM | 4.19 µM | 5.77 | 16.1 µM
15 | O=C1CSC(c2ccc(-c3nc4ccccc4s3)cc2)=N1 |  | 75.7 | > 100 | 99.4 | > 100 | > 100 | > 100 | > 100 | 96.2 µM |  | 20.9 µM | 36.9 µM | 51.9 µM | 17.4 | > 100 | 72.7 µM | 74.8 µM | 32.9 µM | 30.8 | 41.1 µM
16 | O=c1c2ccccc2nc(-c2ccccc2)n1NC(=S)Nc1ccccc1 | > 100 µM | > 100 | > 100 | > 100 | > 100 |  | > 100 | > 100 | > 100 µM |  |  |  |  |  | > 100 |  |  |  |  | 
17 | N#Cc1ccc(OC(=O)Nc2ccc(Cl)c(Cl)c2)cc1 | 13.7 µM | 23.9 | 7.64 | 25.8 | 13.8 | > 100 | 17.7 | 24.8 |  | 2.79 µM | 2.54 µM | 3.09 µM | 2.94 µM | 3.4 | 18.2 | 3.1 µM | 2.99 µM |  | 4.07 | 2.24 µM
18 | CCOC(=O)Cn1c(=O)n(C)c(=O)c2c1ncn2Cc1ccccc1 | > 100 µM |  |  | > 100 | > 100 | > 100 |  | > 100 | > 100 µM |  |  |  |  |  | > 100 |  |  |  |  | 
19 | CC(C(=O)n1c2ccccc2c2ccccc21)N(c1ccccc1)c1ccccc1 (stereo not given) | 34.6 µM | 32.3 | 37.1 | 41.4 | 32.8 | > 100 |  | 35.1 | 6.48 µM |  |  |  |  |  | 27.7 |  |  |  |  | 
20 | Clc1ccc(N=CNc2ccc(-c3nc4ccccc4o3)cc2)cc1 |  | > 100 | 45.9 | > 100 | > 100 | > 100 |  | > 100 |  |  | 19.4 µM | 36.7 µM | 24.5 µM | 15.5 | 39.2 | 35.8 µM | 40.6 µM |  | 32.4 | 
21 | C=CCN1CC2CON(C(=O)C(OC)(c3ccccc3)C(F)(F)F)C2C1C(C)C (stereo not given) |  |  |  |  |  |  |  |  | 78.8 µg/mL | 37.4 µg/mL | 35.7 µg/mL | 41.9 µg/mL | 35.6 µg/mL |  |  | 54.5 µg/mL | 26.3 µg/mL | 27.5 µg/mL |  | 67.1 µg/mL
22 | C[C@]12CC[C@@H]3c4ccc(O)c([N+](=O)[O-])c4CC[C@H]3[C@@H]1CC[C@@H]2NS(=O)(=O)c1cccc(Br)c1 | 5.06 µM | 5.04 | 3.13 | 3.54 | 3.09 | 14.1 | 2.94 | 5.63 |  | 2 µM | 1.68 µM | 1.72 µM | 1.59 µM | 2.36 | 5.43 | 3.53 µM | 2.19 µM |  | 2.1 | 1.47 µM
23 | CC1C(=O)OC2CC[N+]3([O-])CC=C(COC(=O)C(C)(O)C1(C)O)C23 (stereo not given) | > 100 µM | > 100 | > 100 | > 100 | > 100 | > 100 | > 100 |  | > 100 µM |  |  |  |  |  | > 100 |  |  |  |  | 
24 | Clc1cc(Cl)cc(Nc2ccc3cc(OCCCN4CCOCC4)ccc3n2)c1 |  | 4.34 | 3.65 | > 100 | 4.15 |  | > 100 |  | 5.22 µM |  | 1.66 µM | 3.46 µM | 1.47 µM |  |  |  |  | 2.08 µM | 1.96 | 3.44 µM
25 | CCC(=O)Nc1ccc(N=NN(C)C)cc1 | > 100 µM | > 100 |  | > 100 | > 100 | > 100 | > 100 | > 100 | > 100 µM |  |  |  |  |  |  |  |  |  |  | 
26 | Cc1cc2c(nn1)-c1ccccc1C2=O | > 10 µM |  | > 10 | > 10 | > 10 | > 10 | > 10 | > 10 | > 10 µM |  |  |  |  |  | > 10 |  |  |  |  | 
27 | Cc1cccc(N=C2NC(=O)C(CC(=O)Nc3cccc(C)c3C)S2)c1 (stereo not given) | > 100 µM | > 100 | > 100 | > 100 |  | > 100 | > 100 | > 100 |  |  |  |  |  |  |  |  |  |  |  | 
